Data published in publication PMC6268642, “Facile Synthesis and Herbicidal Evaluation of 4H-3,1-Benzoxazin-4-ones and 3H-Quinazolin-4-ones with 2-Phenoxymethyl Substituents” (Molecules, 2012).
Where two headings read alike, the source gives them in different places.

Key:
[1] = tested on: barnyard grass Echinochloa crusgalli; experiment: Petri dish culture, growth inhibition of root and stalk of barnyard grass; type: in vivo; details: 5 days; for inhibition at 1 µg/mL / inhibition at 10 µg/mL: Echinochloa crus-galli, 120 h
Procedure: (§1) The synthesized compounds were tested for the herbicidal activity on model plants including a monocotyledon (barnyard grass) and a dicotyledon (rape) by the reported Petri dish culture method. The percent inhibitory ratios against the growth of root and stalk of barnyard grass and rape at different dosage concentrations were calculated, and the compounds with appreciable inhibitory potencies are selected and shown in Table 1 and Table 2. Several features of the inhibitory activities can be derived. First, all the compounds have stronger inhibition against the growth of the dicotyledon rape than against the monocotyledon barnyard grass, showing appreciable selectivity.
(§2) The herbicidal activity was examined for the growth inhibition effect of the dicotyledon rape Brassica napus and the monocotyledon barnyard grass Echinochloa crusgalli, using the standard Petri dish test and the pre-emergence treatment procedure. […] Nine mL of the solution was added in a Petri dish of 9 cm diameter and two pieces of filter paper were placed on the dish bottom. Twenty seeds each of rape and barnyard grass were placed on the filter paper. The covered Petri dish was transferred into an artificial climate incubator (MGC-400H, Shantou Keyi Co., Ltd., China), where the conditions were controlled at temperature 23 ± 1 °C, humidity 60 ± 5%, light intensity 10 Klux, and photoperiod 12 h/day. The incubation was continued for 5 days, then the lengths of 10 roots and 10 stems for each type of plant were measured and the mean values were calculated. The percent inhibitory ratios were calculated relative to control plants exposing to distilled water instead of the compound solution.

[2] = tested on: rape Brassica napus; experiment: Petri dish culture, growth inhibition of root and stalk of rape; type: in vivo; details: 5 days; for inhibition at 1 µg/mL / inhibition at 10 µg/mL: Brassica napus, 120 h
Procedure: as §1, §2

[3] = 1 mg/L, root growth, read-out: Relative inhibition, root
[4] = 1 mg/L, stalk growth, read-out: Relative inhibition, stalk
[5] = 10 mg/L, root growth, read-out: Relative inhibition, root
[6] = 10 mg/L, stalk growth, read-out: Relative inhibition, stalk

Compound	inhibition at 1 µg/mL [1, 3] [%]	inhibition at 1 µg/mL [1, 4] [%]	inhibition at 10 µg/mL [1, 5] [%]	inhibition at 10 µg/mL [1, 6] [%]	inhibition at 1 µg/mL [2, 3] [%]	inhibition at 1 µg/mL [2, 4] [%]	inhibition at 10 µg/mL [2, 5] [%]	inhibition at 10 µg/mL [2, 6] [%]	melting point [°C]	Relative inhibition, root ([1]; 1 mg/L, root growth) [%]	Relative inhibition, stalk ([1]; 1 mg/L, stalk growth) [%]	Relative inhibition, root ([1]; 10 mg/L, root growth) [%]	Relative inhibition, stalk ([1]; 10 mg/L, stalk growth) [%]	Relative inhibition, root ([2]; 1 mg/L, root growth) [%]	Relative inhibition, stalk ([2]; 1 mg/L, stalk growth) [%]	Relative inhibition, root ([2]; 10 mg/L, root growth) [%]	Relative inhibition, stalk ([2]; 10 mg/L, stalk growth) [%]
O=c1oc(COc2ccc(Cl)cc2)nc2cc(Cl)ccc12 [3j, 7-Chloro-2-((4-chlorophenoxy)methyl)-4H-3,1-benzoxazin-4-one]	43.6	12.8	92.3	31.1	91.4	59.5	100	91.1	189.9 to 191.8	–	–	–	–	–	–	–	–
7-Chloro-2-((2,4-dichlorophenoxy)methyl)-3-methyl-3H-quinazolin-4-one [4r]	–	–	–	–	–	–	–	–	–	12.3	1.4	34.6	0.0	32.3	−8.8	44.5	−2.4
Cn1c(COc2ccc(Cl)cc2Cl)nc2ccc(Cl)cc2c1=O [4q, 6-Chloro-2-((2,4-dichlorophenoxy)methyl)-3-methyl-3H-quinazolin-4-one]	24.3	5.4	31.9	-3.6	8.1	14.4	19.3	38.9	240.1 to 241.8	–	–	–	–	–	–	–	–
O=c1oc(COc2ccc(F)cc2)nc2ccccc12 [3r, 2-((4-Fluorophenoxy)methyl)-4H-3,1-benzoxazin-4-one]	62.6	42.8	96.8	57.8	81.4	55.3	99.6	87	112.5 to 114.6	–	–	–	–	–	–	–	–
O=c1oc(COc2ccccc2)nc2ccccc12 [3a, 2-(Phenoxymethyl)-4H-3,1-benzoxazin-4-one]	19.3	-29.6	64.8	26.9	71.2	27	89.1	79.4	87.9 to 92.1	–	–	–	–	–	–	–	–
Nn1c(COc2ccc(Cl)cc2)nc2ccc(Cl)cc2c1=O [4b, 3-Amino-6-chloro-2-((4-chlorophenoxy)methyl)-3H-quinazolin-4-one]	33.2	20.9	9.9	11.9	27.7	14.7	46.8	13.2	178.1 to 179.4	–	–	–	–	–	–	–	–
O=c1oc(COc2ccc(F)cc2)nc2cc(Cl)ccc12 [3u, 7-Chloro-2-((4-fluorophenoxy)methyl)-4H-3,1-benzoxazin-4-one]	61.8	-7.3	96.7	39	92.7	65.2	99	92.2	123.6 to 124.9	–	–	–	–	–	–	–	–
O=c1oc(COc2ccc(F)cc2)nc2cccc(Cl)c12 [3s, 5-Chloro-2-((4-fluorophenoxy)methyl)-4H-3,1-benzoxazin-4-one]	61.1	11.8	91	46.3	72.8	25.7	98.6	94.8	155.9 to 156.7	–	–	–	–	–	–	–	–
Cc1ccc2nc(COc3ccc(Cl)cc3)oc(=O)c2c1 [3k, 2-((4-Chlorophenoxy)methyl)-6-methyl-4H-3,1-benzoxazin-4-one]	48.4	18.2	77.1	-8.8	84.7	29.3	100	82.1	143.7 to 145.6	–	–	–	–	–	–	–	–
Cn1c(COc2ccc(Cl)cc2)nc2cc(Cl)ccc2c1=O [4m, 7-Chloro-2-((4-chlorophenoxy)methyl)-3-methyl-3H-quinazolin-4-one]	14.8	7.5	29.2	14.9	26.2	1.5	27.9	-0.5	202.4 to 203.9	–	–	–	–	–	–	–	–
Nn1c(COc2ccc(Cl)cc2)nc2cc(Cl)ccc2c1=O [4c, 3-Amino-7-chloro-2-((4-chlorophenoxy)methyl)-3H-quinazolin-4-one]	10.4	1.4	42.1	17.9	27.7	-9.3	69.7	41.6	129.5 to 131.6	–	–	–	–	–	–	–	–
COc1cc2nc(COc3ccc(Cl)cc3)n(N)c(=O)c2cc1OC [4e, 3-Amino-2-((4-chlorophenoxy)methyl)-6,7-dimethoxy-3H-quinazolin-4-one]	13.8	2.9	23.3	11.9	21.9	1.5	30.8	6.4	202.8 to 204.1	–	–	–	–	–	–	–	–
Nn1c(COc2ccc(Cl)cc2Cl)nc2ccc(Cl)cc2c1=O [4h, 3-Amino-6-chloro-2-((2,4-dichlorophenoxy)methyl)-3H-quinazolin-4-one]	20	-42	37.5	-12.7	7.5	10.7	22	19.9	223.6 to 224.9	–	–	–	–	–	–	–	–
COc1cc2nc(COc3ccc(F)cc3)oc(=O)c2cc1OC [3w, 2-((4-Fluorophenoxy)methyl)-6,7-dimethoxy-4H-3,1-benzoxazin-4-one]	37.5	12.8	64.5	16.4	35.2	12.8	79.7	41.4	144.7 to 146	–	–	–	–	–	–	–	–
Nn1c(COc2ccc(Cl)cc2)nc2cccc(Cl)c2c1=O [4a, 3-Amino-5-chloro-2-((4-chlorophenoxy)methyl)-3H-quinazolin-4-one]	57.9	8.9	43.1	14.9	28.5	13.2	41.5	-5.9	191.8 to 193.3	–	–	–	–	–	–	–	–
